{"source": "patent US8592629B2", "about": "“Sulfonamide derivatives as Nav 1.7 inhibitors” (Pfizer Limited, priority 2010, dated 2013)", "data": [{"biological_target": "T1, Nav1.7 (or SCN9A) channel (Homo sapiens, UniProt Q15858)", "T1 construct": "expressed in transfected cells", "T1 sequence (Q15858 whole entry)": "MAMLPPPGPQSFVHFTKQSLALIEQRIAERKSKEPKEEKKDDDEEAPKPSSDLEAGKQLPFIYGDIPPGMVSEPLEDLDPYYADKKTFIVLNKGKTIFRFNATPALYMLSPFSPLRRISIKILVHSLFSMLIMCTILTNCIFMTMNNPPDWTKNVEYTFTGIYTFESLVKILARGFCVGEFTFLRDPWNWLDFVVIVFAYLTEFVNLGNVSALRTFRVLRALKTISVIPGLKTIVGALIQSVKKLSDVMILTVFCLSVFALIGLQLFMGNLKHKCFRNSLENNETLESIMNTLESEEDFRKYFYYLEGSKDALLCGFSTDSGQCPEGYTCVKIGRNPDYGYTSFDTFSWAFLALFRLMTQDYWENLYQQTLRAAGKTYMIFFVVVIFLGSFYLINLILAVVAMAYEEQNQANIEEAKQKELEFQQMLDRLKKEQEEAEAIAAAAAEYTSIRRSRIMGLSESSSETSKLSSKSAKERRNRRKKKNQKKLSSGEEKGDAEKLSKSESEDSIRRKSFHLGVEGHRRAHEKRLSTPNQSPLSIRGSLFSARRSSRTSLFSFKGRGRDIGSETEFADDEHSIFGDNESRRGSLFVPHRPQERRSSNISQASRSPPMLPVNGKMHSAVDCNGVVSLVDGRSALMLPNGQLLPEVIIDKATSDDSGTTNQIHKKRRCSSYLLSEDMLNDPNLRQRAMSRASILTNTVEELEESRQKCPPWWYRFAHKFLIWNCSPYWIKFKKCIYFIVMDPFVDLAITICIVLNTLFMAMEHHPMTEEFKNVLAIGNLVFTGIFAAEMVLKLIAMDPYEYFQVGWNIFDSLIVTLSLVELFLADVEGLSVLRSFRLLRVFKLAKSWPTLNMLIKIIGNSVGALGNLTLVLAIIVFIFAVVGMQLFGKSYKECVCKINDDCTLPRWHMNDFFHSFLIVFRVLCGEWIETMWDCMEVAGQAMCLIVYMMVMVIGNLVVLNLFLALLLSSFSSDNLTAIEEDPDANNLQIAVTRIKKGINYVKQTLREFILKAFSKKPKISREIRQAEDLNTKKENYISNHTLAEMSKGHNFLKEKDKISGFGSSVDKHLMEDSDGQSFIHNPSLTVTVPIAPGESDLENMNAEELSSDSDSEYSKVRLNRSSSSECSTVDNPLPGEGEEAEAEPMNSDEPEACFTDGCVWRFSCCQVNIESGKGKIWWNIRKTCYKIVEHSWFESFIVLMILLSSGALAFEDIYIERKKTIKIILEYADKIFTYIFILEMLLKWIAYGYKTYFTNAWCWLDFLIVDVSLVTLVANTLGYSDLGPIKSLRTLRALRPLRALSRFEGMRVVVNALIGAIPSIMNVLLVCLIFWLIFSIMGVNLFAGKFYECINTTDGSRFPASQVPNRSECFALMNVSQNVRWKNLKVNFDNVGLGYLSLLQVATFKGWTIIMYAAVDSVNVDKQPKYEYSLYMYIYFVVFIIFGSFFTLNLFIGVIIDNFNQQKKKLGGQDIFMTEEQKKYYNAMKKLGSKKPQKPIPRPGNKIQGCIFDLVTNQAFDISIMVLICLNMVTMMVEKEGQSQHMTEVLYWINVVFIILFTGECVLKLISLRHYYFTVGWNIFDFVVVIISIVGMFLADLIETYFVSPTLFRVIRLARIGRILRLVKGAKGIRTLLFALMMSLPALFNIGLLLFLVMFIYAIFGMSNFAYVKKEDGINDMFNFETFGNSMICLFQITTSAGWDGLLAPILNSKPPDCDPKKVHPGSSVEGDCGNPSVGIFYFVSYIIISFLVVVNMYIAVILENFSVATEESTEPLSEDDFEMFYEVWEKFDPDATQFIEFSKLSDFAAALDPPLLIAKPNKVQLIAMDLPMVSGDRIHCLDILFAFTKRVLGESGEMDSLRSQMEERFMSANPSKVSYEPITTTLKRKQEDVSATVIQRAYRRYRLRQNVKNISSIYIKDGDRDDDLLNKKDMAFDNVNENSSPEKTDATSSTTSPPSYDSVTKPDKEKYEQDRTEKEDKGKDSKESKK", "assay": "Nav1.7 (hSCN9A) block in HEK cells, PatchXpress 7000 automated electrophysiology, estimated IC50 (EIC50)", "format": "cell-based", "settings": "PatchXpress assay; HEK cells stably transfected with hSCN9A, voltage-clamped at V1/2 of inactivation", "summary_of_the_method": "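Stable hSCN9A HEK cells voltage-clamped at empirically determined inactivation V1/2 (8 s prepulse), current activated by 20 msec step to 0 mV; % inhibition from current before vs after compound. EIC50 derived from single-point data as concentration × (100−%inhibition)/%inhibition, excluding <20% and >80% inhibition; PatchXpress unless stated.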", "units": {"IC50": "µM"}, "values": [{"smiles": "CS(=O)(=O)NC(=O)c1cc(F)c(Oc2ccc(Cl)cn2)cc1F", "note": "[Example 184, 4-[(5-chloropyridin-2-yl)oxy]-2,5-difluoro-N-(methylsulfonyl)benzamide]", "IC50": 4.4}, {"smiles": "Cc1nc2ccccc2nc1Oc1cc(F)c(C(=O)NS(C)(=O)=O)cc1F", "note": "[Example 187, 2,5-difluoro-4-[(3-methylquinoxalin-2-yl)oxy]-N-(methylsulfonyl)benzamide]", "IC50": "> 3"}, {"smiles": "CC(C)c1nccnc1Oc1cc(F)c(C(=O)NS(C)(=O)=O)cc1F", "note": "[Example 193, 2,5-difluoro-4-[(3-isopropylpyrazin-2-yl)oxy]-N-(methylsulfonyl)benzamide]", "IC50": 2.1}, {"smiles": "CS(=O)(=O)NC(=O)c1cc(F)c(Oc2ccc(C(F)(F)F)cn2)cc1F", "note": "[Example 194, 2,5-difluoro-N-(methylsulfonyl)-4-{[5-(trifluoromethyl)pyridin-2-yl]oxy}benzamide]", "IC50": 3.1}, {"smiles": "Cc1cc2ccccc2nc1Oc1cc(F)c(C(=O)NS(C)(=O)=O)cc1F", "note": "[Example 196, 2,5-difluoro-4-[(3-methylquinolin-2-yl)oxy]-N-(methylsulfonyl)benzamide]", "IC50": "> 3"}]}, {"biological_target": "T1, Nav1.7 (or SCN9A) channel", "assay": "Nav1.7 (hSCN9A) block in HEK cells, Ionworks Quattro automated electrophysiology", "format": "cell-based", "settings": "Ionworks Quattro assay (IW); HEK cells stably transfected with hSCN9A; read-out: Nav1.7 EIC50 (IW)", "description": "The ability of the compounds of formula (I) to block the Nav1.7 (or SCN9A) channel were measured using the assay described below.\nHuman Embryonic Kidney (HEK) cells were transfected with an hSCN9A construct using lipofectamine reagent (Invitrogen), using standard techniques. Cells stably expressing the hSCN9A constructs were identified by their resistance to G-418 (400 μg/ml). Clones were screened for expression using the whole-cell voltage-clamp technique.\nHEK cells stably transfected with hSCN9A were maintained in DMEM medium supplemented with 10% heat-inactivated fetal bovine serum and 400 μg/ml G-418 in an incubator at 37° C. with a humidified atmosphere of 10% CO2. For HTS, cells were harvested from flasks by trypsinization and replated in an appropriate multi-well plate (typically 96 or 384 wells/plate) such that confluence would be achieved within 24 hours of plating. For electrophysiological studies, cells were removed from the culture flask by brief trypsinization and re-plated at low density onto glass cover slips. Cells were typically used for electrophysiological experiments within 24 to 72 hours after plating.\nElectrophysiological assays were also conducted using the lonworks Quattro automated electrophysiological platform (Molecular Devices Corp). Intracellular and extracellular solutions were as described above with the following changes, 120 μg/ml amphotericin was added to the intracellular solution to perforate the membrane and allow electrical access to the cells. hSCN9A cells were grown and harvested as for PatchXpress and cells were resuspended in extracellular solution at a concentration of 1×10^6 cells/ml. The onboard liquid handling facility of the Ionworks Quattro was used for dispensing cells and application of test compounds. A voltage protocol was then applied that comprised of a voltage step to fully inactivate the sodium channels, followed by a brief hyperpolarized recovery period to allow partial recovery from inactivation for unblocked sodium channels, followed by a test depolarized voltage step to assess magnitude of inhibition by test compound. Compound effect was determined based on current amplitude difference between the pre-compound addition and post-compound addition scans.\nCompounds of the Examples were tested in the assays described above and found to have the Nav1.7 EIC50 (μM) values specified in the table below. All data are derived from the PatchXpress assay unless explicitly stated otherwise.", "units": {"IC50": "µM"}, "values": [{"smiles": "CCc1cn2nc(Oc3cc(F)c(C(=O)NS(C)(=O)=O)cc3F)ccc2n1", "note": "[Example 180, 4-[(2-ethylimidazo[1,2-b]pyridazin-6-yl)oxy]-2,5-difluoro-N-(methylsulfonyl)benzamide]", "IC50": 232}, {"smiles": "Cc1cc(Oc2cc(F)c(C(=O)NS(C)(=O)=O)cc2F)nc(C)n1", "note": "[Example 183, 4-[(2,6-dimethylpyrimidin-4-yl)oxy]-2,5-difluoro-N-(methylsulfonyl)benzamide]", "IC50": "> 323"}, {"smiles": "Cc1cc(C#N)nc(Oc2cc(F)c(C(=O)NS(C)(=O)=O)cc2F)c1", "note": "[Example 185, 4-[(6-cyano-4-methylpyridin-2-yl)oxy]-2,5-difluoro-N-(methylsulfonyl)benzamide]", "IC50": "> 323"}, {"smiles": "Cc1cc(N(C)C)nc(Oc2cc(F)c(C(=O)NS(C)(=O)=O)cc2F)n1", "note": "[Example 186, 4-{[4-(dimethylamino)-6-methylpyrimidin-2-yl]oxy}-2,5-difluoro-N-(methylsulfonyl)benzamide]", "IC50": "> 323"}, {"smiles": "Cc1nccnc1Oc1cc(F)c(C(=O)NS(C)(=O)=O)cc1F", "note": "[Example 189, 2,5-difluoro-4-[(3-methylpyrazin-2-yl)oxy]-N-(methylsulfonyl)benzamide]", "IC50": 232}, {"smiles": "COc1ccc2nc(Oc3cc(F)c(C(=O)NS(C)(=O)=O)cc3F)ccc2c1", "note": "[Example 190, 2,5-difluoro-4-[(6-methoxyquinolin-2-yl)oxy]-N-(methylsulfonyl)benzamide]", "IC50": 29.3}, {"smiles": "CS(=O)(=O)NC(=O)c1cc(F)c(Oc2nncc3ccccc23)cc1F", "note": "[Example 195, 2,5-difluoro-N-(methylsulfonyl)-4-(phthalazin-1-yloxy)benzamide]", "IC50": "> 323"}, {"smiles": "CCCc1ncc(F)c(Oc2cc(F)c(C(=O)NS(C)(=O)=O)cc2F)n1", "note": "[Example 197, 2,5-difluoro-4-[(5-fluoro-2-propylpyrimidin-4-yl)oxy]-N-(methylsulfonyl)benzamide]", "IC50": "> 323"}, {"smiles": "CS(=O)(=O)NC(=O)c1cc(F)c(Oc2ncc(Cl)cn2)cc1F", "note": "[Example 198, 4-[(5-chloropyrimidin-2-yl)oxy]-2,5-difluoro-N-(methylsulfonyl)benzamide]", "IC50": "> 323"}, {"smiles": "Cc1cc(Oc2cc(F)c(C(=O)NS(C)(=O)=O)cc2F)ncn1", "note": "[Example 199, 2,5-difluoro-4-[(6-methylpyrimidin-4-yl)oxy]-N-(methylsulfonyl)benzamide]", "IC50": "> 323"}, {"smiles": "COc1cc(Oc2cc(F)c(C(=O)NS(C)(=O)=O)cc2F)ncn1", "note": "[Example 200, 2,5-difluoro-4-[(6-methoxypyrimidin-4-yl)oxy]-N-(methylsulfonyl)benzamide]", "IC50": 173}, {"smiles": "CS(=O)(=O)NC(=O)c1ccc(Oc2ccc3ccccc3n2)c(C#N)c1", "note": "[Example L34, 3-cyano-N-(methylsulfonyl)-4-(quinolin-2-yloxy)benzamide]", "IC50": 222}, {"smiles": "CS(=O)(=O)NC(=O)c1ccc(Oc2cnc3ccccc3c2)c(C#N)c1", "note": "[Example L35, 3-cyano-N-(methylsulfonyl)-4-(quinolin-3-yloxy)benzamide]", "IC50": 50.2}, {"smiles": "CS(=O)(=O)NC(=O)c1ccc(Oc2nccc3ccccc23)c(Cl)c1", "note": "[Example L36, 3-chloro-4-(isoquinolin-1-yloxy)-N-(methylsulfonyl)benzamide]", "IC50": "> 323"}, {"smiles": "CS(=O)(=O)NC(=O)c1ccc(Oc2cncc3ccccc23)c(C#N)c1", "note": "[Example L37, 3-cyano-4-(isoquinolin-4-yloxy)-N-(methylsulfonyl)benzamide]", "IC50": "> 323"}, {"smiles": "CS(=O)(=O)NC(=O)c1cc(Cl)c(Oc2nccc3ccccc23)cc1F", "note": "[Example L38, 5-chloro-2-fluoro-4-(isoquinolin-1-yloxy)-N-(methylsulfonyl)benzamide]", "IC50": "> 323"}, {"smiles": "CS(=O)(=O)NC(=O)c1ccc(Oc2cc3ccccc3cn2)c(C#N)c1", "note": "[Example L43, 3-cyano-4-(isoquinolin-3-yloxy)-N-(methylsulfonyl)benzamide]", "IC50": 41}, {"smiles": "Cn1cnc2cccc(Oc3cc(F)c(C(=O)NS(C)(=O)=O)cc3Cl)c21", "note": "[Example L44, 5-chloro-2-fluoro-4-[(1-methyl-1H-benzimidazol-7-yl)oxy]-N-(methylsulfonyl)benzamide]", "IC50": "> 323"}, {"smiles": "COc1c(C(=O)NS(C)(=O)=O)ccc(Oc2ccc(Oc3ccc(F)cc3)nc2)c1F", "note": "[Example L47, 3-fluoro-4-{[6-(4-fluorophenoxy)pyridin-3-yl]oxy}-2-methoxy-N-(methylsulfonyl)benzamide]", "IC50": 121}, {"smiles": "CCCc1ccc(Oc2ccc(C(=O)NS(C)(=O)=O)cc2F)cn1", "note": "[Example L48, 3-fluoro-N-(methylsulfonyl)-4-[(6-propylpyridin-3-yl)oxy]benzamide]", "IC50": 38.5}, {"smiles": "Cc1ccc(Oc2ccc(C(=O)NS(C)(=O)=O)cc2F)cn1", "note": "[Example L51, 3-fluoro-4-[(6-methylpyridin-3-yl)oxy]-N-(methylsulfonyl)benzamide]", "IC50": 300}, {"smiles": "CCc1ccc(Oc2ccc(C(=O)NS(C)(=O)=O)c(C)c2)cn1", "note": "[Example L55, 4-[(6-ethylpyridin-3-yl)oxy]-2-methyl-N-(methylsulfonyl)benzamide]", "IC50": 300}, {"smiles": "Cc1ncc(Oc2ccc(C(=O)NS(C)(=O)=O)cc2Cl)cn1", "note": "[Example L58, 3-chloro-4-[(2-methylpyrimidin-5-yl)oxy]-N-(methylsulfonyl)benzamide]", "IC50": 216}, {"smiles": "Cc1ncc(Oc2ccc(C(=O)NS(C)(=O)=O)cc2C(F)(F)F)cn1", "note": "[Example L61, 4-[(2-methylpyrimidin-5-yl)oxy]-N-(methylsulfonyl)-3-(trifluoromethyl)benzamide]", "IC50": 100}, {"smiles": "COc1c(C(=O)NS(C)(=O)=O)ccc(Oc2cnc(N3CCCCC3)nc2)c1F", "note": "[Example L62, 3-fluoro-2-methoxy-N-(methylsulfonyl)-4-[(2-piperidin-1-ylpyrimidin-5-yl)oxy]benzamide]", "IC50": 57.4}, {"smiles": "CS(=O)(=O)NC(=O)c1ccc(Oc2cncnc2)c(Cl)c1", "note": "[Example L64, 3-chloro-N-(methylsulfonyl)-4-(pyrimidin-5-yloxy)benzamide]", "IC50": "> 323"}]}]}
